In patent US20260042755A1, “GPR6 INVERSE AGONISTS” (MapLight Therapeutics, Inc., priority 2022, published 2026):

Assays:
GPR3 = molecular target: T1, GPR3 (Homo sapiens, UniProt P46089); test: GPR3 antagonist functional cAMP assay (LANCE Ultra cAMP TR-FRET, CHO cells stably expressing GPR3); assay type: cell-based
T1 construct: expressed in transfected cells; host or cells: CHO cells
Method in brief: (§1)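 cAMP quantified by TR-FRET immunoassay after 45 min compound treatment at 37° C of CHO cells stably expressing GPR3 or GPR6, in PDE-inhibitor (Ro 20-1724, 150 μM) buffer with 0.1% BSA. Data scaled between DMSO (0%) and reference compounds (100%); antagonist IC50 by 4-parameter logistic fit.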

GPR6 = molecular target: T2, GPR6 (Homo sapiens, UniProt P46095); test: GPR6 antagonist functional cAMP assay (LANCE Ultra cAMP TR-FRET, CHO cells stably expressing GPR6); assay type: cell-based
T2 construct: expressed in transfected cells; host or cells: CHO cells
Method in brief: as §1

[1] = CHO cells stably expressing GPR3, cAMP assay (Example 24)
[2] = CHO cells stably expressing GPR6, cAMP assay (Example 24)
[3] = CHO cells stably expressing GPR3, cAMP assay
[4] = CHO cells stably expressing GPR6, cAMP assay
[5] = procedure as described in Example 24

T2 sequence (P46095 whole entry): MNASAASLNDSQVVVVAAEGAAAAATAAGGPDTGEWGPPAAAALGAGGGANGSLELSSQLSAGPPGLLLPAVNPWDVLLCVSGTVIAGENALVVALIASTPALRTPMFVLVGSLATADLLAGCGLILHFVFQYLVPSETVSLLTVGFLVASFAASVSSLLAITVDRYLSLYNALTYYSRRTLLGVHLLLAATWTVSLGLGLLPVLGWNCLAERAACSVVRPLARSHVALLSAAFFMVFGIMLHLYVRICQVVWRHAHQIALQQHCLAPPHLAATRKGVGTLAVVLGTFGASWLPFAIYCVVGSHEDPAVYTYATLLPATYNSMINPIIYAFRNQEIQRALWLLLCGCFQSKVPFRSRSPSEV
T1 sequence (P46089 whole entry, species assumed): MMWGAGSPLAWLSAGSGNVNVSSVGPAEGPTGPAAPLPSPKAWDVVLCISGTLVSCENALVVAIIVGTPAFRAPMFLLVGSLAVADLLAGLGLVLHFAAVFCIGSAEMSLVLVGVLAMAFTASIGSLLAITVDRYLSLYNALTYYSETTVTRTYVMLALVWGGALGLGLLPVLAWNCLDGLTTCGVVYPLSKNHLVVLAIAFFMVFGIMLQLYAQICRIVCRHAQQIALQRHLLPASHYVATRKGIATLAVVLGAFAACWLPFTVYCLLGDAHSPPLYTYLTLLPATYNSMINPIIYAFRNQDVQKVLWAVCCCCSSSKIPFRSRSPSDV

Work on `CC(=O)N1CCc2nc(N3CCC(C(=O)NCc4ccc(F)cc4F)C3)c(-c3cnn(C)c3)nc2C1` (stereo not shown) [Compound 386, 1-[6-acetyl-3-(1-methyl-1H-pyrazol-4-yl)-5H,6H,7H,8H-pyrido[3,4-b]pyrazin-2-yl]-N-[(2,4-difluorophenyl)methyl] pyrrolidine-3-carboxamide] yielded an IC50 (GPR3; [1]) of 1000 to 30000 nM and an IC50 (GPR6; [2]) of no less than 30000 nM.

With `CC(=O)N1CCc2nc(N3CCC(Oc4ccc(F)cc4F)CC3)c(C3CCN(CC(F)(F)F)CC3)nc2C1` [Compound 496, 1-{2-[4-(2,4-difluorophenoxy)-1-piperidyl]-3-[1-(2,2,2-trifluoroethyl)-4-piperidyl]-5,6,7,8-tetrahydro-1,4,6-triaza-6-naphthyl}-1-ethanone] the IC50 (GPR3; [3]) was 1000 to 30000 nM and the IC50 (GPR6; [4]) was 1000 to 30000 nM.

For `C=CC(=O)N1CCc2nc(N3CCC(Oc4ccc(F)cc4F)CC3)c(-c3cnn(CC)c3)nc2C1` [Compound 310, 1-{2-[4-(2,4-difluorophenoxy)piperidin-1-yl]-3-(1-ethyl-1H-pyrazol-4-yl)-5H,6H,7H,8H-pyrido[3,4-b]pyrazin-6-yl}prop-2-en-1-one], the IC50 (GPR3; procedure of Example 24) was 1000 to 30000 nM and the IC50 (GPR6; procedure of Example 24) was less than 100 nM.

Compound `CC(C)(O)[C@@](C)(O)c1cc2nc(-c3cnn(CF)c3)c(N3CCC(Oc4ccc(F)cc4F)CC3)nc2cn1` (single isomer, unassigned) [Compound 783] has an IC50 (GPR3; procedure of Example 24) of 1000 to 30000 nM and an IC50 (GPR6; procedure of Example 24) of 100 to 1000 nM.

`CC(C)(O)[C@@H](O)c1cc2nc(-c3cn[nH]c3)c(N3CCN(Cc4ccc(F)cc4F)CC3)nc2cn1` (single isomer, unassigned) [Compound 800] gave an IC50 (GPR3; procedure of Example 24) of 1000 to 30000 nM and an IC50 (GPR6; procedure of Example 24) of 100 to 1000 nM.

`CC(=O)N1CCc2nc(N3CCN(C(=O)c4cc(F)cc(F)c4)CC3)c(-c3cnn(C)c3)nc2C1` [Compound 285, 1-{2-[4-(3,5-difluorobenzoyl)piperazin-1-yl]-3-(1-methyl-1H-pyrazol-4-yl)-5H,6H,7H,8H-pyrido[3,4-b]pyrazin-6-yl}ethan-1-one] was tested, and the IC50 (GPR3; procedure of Example 24) was 1000 to 30000 nM and the IC50 (GPR6; procedure of Example 24) was no less than 30000 nM.

Work on `CC(=O)N1CCc2nc(N3CCN(Cc4cccc(C#N)c4)CC3)c(-c3cnn(C)c3)nc2C1` [Compound 512, m-({4-[6-acetyl-3-(1-methyl-4-pyrazolyl)-5,6,7,8-tetrahydro-1,4,6-triaza-2-naphthyl]-1-piperazinyl}methyl)benzonitrile] yielded an IC50 (GPR3; [3]) of 1000 to 30000 nM and an IC50 (GPR6; [4]) of 1000 to 30000 nM.

With `CC(=O)N1CCc2nc(N3CCC(Oc4ccc(F)cc4F)CC3)c(-c3cnn(C(C)(C)C#N)c3)nc2C1` [Compound 196, 2-(4-{6-acetyl-2-[4-(2,4-difluorophenoxy)piperidin-1-yl]-5H,6H,7H,8H-pyrido[3,4-b]pyrazin-3-yl}-1H-pyrazol-1-yl)-2-methylpropanenitrile] the IC50 (GPR3; [1]) was 1000 to 30000 nM and the IC50 (GPR6; [2]) was 1000 to 30000 nM.

`Cn1cc(-c2nc3cnc(O)cc3nc2N2CCC(Oc3ccc(F)cc3F)CC2)cn1` [Compound 395, 2-(4-(2,4-difluorophenoxy)piperidin-1-yl)-3-(1-methyl-1H-pyrazol-4-yl)pyrido[3,4-b]pyrazin-7-ol] was tested, and the IC50 (GPR3; [1]) was 1000 to 30000 nM and the IC50 (GPR6; [2]) was 1000 to 30000 nM.

Compound `CC(=O)N1CCc2nc(N3CCC(C(=O)N4CCOCC4)C3)c(-c3cnn(C)c3)nc2C1` (stereo not shown) [Compound 389, 1-[3-(1-methyl-1H-pyrazol-4-yl)-2-[3-(morpholine-4-carbonyl)pyrrolidin-1-yl]-5H,6H,7H,8H-pyrido[3,4-b]pyrazin-6-yl]ethan-1-one] has an IC50 (GPR3; [1]) of 1000 to 30000 nM and an IC50 (GPR6; [2]) of no less than 30000 nM.

`Cn1cc(-c2nc3cnc([C@H](O)C(C)(C)O)cc3nc2N2CCC(Oc3ccc(F)cc3F)CC2)cn1` (single isomer, unassigned) [Compound 378, (Rel-S)-1-(2-(4-(2,4-difluorophenoxy)piperidin-1-yl)-3-(1-methyl-1H-pyrazol-4-yl)pyrido[3,4-b]pyrazin-7-yl)-2-methylpropane-1,2-diol] was tested, and the IC50 (GPR3; [1]) was 1000 to 30000 nM and the IC50 (GPR6; [2]) was 100 to 1000 nM.

Work on `Clc1ccc(Cl)c(CN2CCN(c3nc4ccncc4nc3-c3ncc[nH]3)CC2)c1` [Compound 5, 1-[(2,5-dichlorophenyl)methyl]-4-[3-(1H-imidazol-2-yl)pyrido[3,4-b]pyrazin-2-yl]piperazine] yielded an IC50 (GPR3; [5]) of 1000 to 30000 nM and an IC50 (GPR6; [5]) of 100 to 1000 nM.

Compound `CC(C)(O)C(=O)c1cc2nc(N3CCN(Cc4ccccc4F)CC3)c(-c3cnn(CF)c3)nc2cn1` [Compound 608, 1-{3-[1-(fluoromethyl)-4-pyrazolyl]-2-{4-[(o-fluorophenyl)methyl]-1-piperazinyl}-1,4,6-triaza-7-naphthyl}-2-hydroxy-2-methyl-1-propanone] has an IC50 (GPR3; [3]) of 1000 to 30000 nM and an IC50 (GPR6; [4]) of 100 to 1000 nM.

`CC(=O)N1CCc2nc(N3CCC(Oc4ccc(Cl)cc4F)CC3)c(-c3cnn(C)c3)nc2C1` [Compound 456, 1-{2-[4-(4-chloro-2-fluorophenoxy)piperidin-1-yl]-3-(1-methyl-1H-pyrazol-4-yl)-5H,6H,7H,8H-pyrido[3,4-b]pyrazin-6-yl}ethan-1-one] was tested, and the IC50 (GPR3; [1]) was 1000 to 30000 nM and the IC50 (GPR6; [2]) was 100 to 1000 nM.

`CC(=O)N1CCc2nc(N3CCN(C(=O)c4ccc(Cl)cc4)CC3)c(-c3cnn(C)c3)nc2C1` [Compound 538, 1-{2-[4-(p-chlorobenzoyl)-1-piperazinyl]-3-(1-methyl-4-pyrazolyl)-5,6,7,8-tetrahydro-1,4,6-triaza-6-naphthyl}-1-ethanone] showed an IC50 (GPR3; [3]) of 1000 to 30000 nM and an IC50 (GPR6; [4]) of 100 to 1000 nM.

Compound `CC(=O)N1CCc2nc(N3CCCC(Oc4cccc(F)c4)C3)c(-c3cnn(C)c3)nc2C1` (stereo not shown) [Compound 337, 1-{2-[3-(3-fluorophenoxy)piperidin-1-yl]-3-(1-methyl-1H-pyrazol-4-yl)-5H,6H,7H,8H-pyrido[3,4-b]pyrazin-6-yl}ethan-1-one] has an IC50 (GPR3; procedure of Example 24) of 1000 to 30000 nM and an IC50 (GPR6; procedure of Example 24) of no less than 30000 nM.

Compound `CC(=O)N1CCc2nc(N3CCN(Cc4c[nH]cn4)CC3)c(-c3cnn(C)c3)nc2C1` [Compound 548, 1-(2-{4-[(4-imidazolyl)methyl]-1-piperazinyl}-3-(1-methyl-4-pyrazolyl)-5,6,7,8-tetrahydro-1,4,6-triaza-6-naphthyl)-1-ethanone] has an IC50 (GPR3; [3]) of no less than 30000 nM and an IC50 (GPR6; [4]) of no less than 30000 nM.

For `CC(=O)N1CCc2nc(N3CCN(Cc4cc(Cl)ccc4Cl)CC3)c(-c3ccc(F)c(N)n3)nc2C1` [Compound 580, 1-[3-(6-amino-5-fluoro-2-pyridyl)-2-{4-[(2,5-dichlorophenyl)methyl]-1-piperazinyl}-5,6,7,8-tetrahydro-1,4,6-triaza-6-naphthyl]-1-ethanone], the IC50 (GPR3; [3]) was 1000 to 30000 nM and the IC50 (GPR6; [4]) was less than 100 nM.

Compound `CC(=O)N1CCc2nc(C3=CCC(Oc4ccc(F)cc4F)CC3)c(-c3ncco3)nc2C1` (stereo not shown) [Compound 303, 1-{2-[4-(2,4-difluorophenoxy)cyclohex-1-en-1-yl]-3-(1,3-oxazol-2-yl)-5H,6H,7H,8H-pyrido[3,4-b]pyrazin-6-yl}ethan-1-one] has an IC50 (GPR3; procedure of Example 24) of no less than 30000 nM and an IC50 (GPR6; procedure of Example 24) of no less than 30000 nM.

`Cn1cc(-c2nc3cnc(CC(C)(C)O)cc3nc2N2CCC(Oc3ccc(F)cc3F)CC2)cn1` [Compound 461, 1-(2-(4-(2,4-difluorophenoxy)piperidin-1-yl)-3-(1-methyl-1H-pyrazol-4-yl)pyrido[3,4-b]pyrazin-7-yl)-2-methylpropan-2-ol] showed an IC50 (GPR3; [1]) of 1000 to 30000 nM and an IC50 (GPR6; [2]) of 100 to 1000 nM.

With `CC(=O)N1CCc2nc(N3CCC(Oc4ccc(F)cc4F)CC3)c(-c3cn[nH]c3)nc2C1` [Compound 32, 1-(2-(4-(2,4-difluorophenoxy)piperidin-1-yl)-3-(1H-pyrazol-4-yl)-7,8-dihydropyrido[3,4-b]pyrazin-6(5H)-yl)ethan-1-one] the IC50 (GPR3; [5]) was 1000 to 30000 nM and the IC50 (GPR6; [5]) was 100 to 1000 nM.

Compound `Cn1cc(-c2nc3cc([C@](C)(O)C(C)(C)O)ncc3nc2N2CCN(Cc3ccc(F)cc3F)CC2)cn1` (single isomer, unassigned) [Compound 773] has an IC50 (GPR3; procedure of Example 24) of 100 to 1000 nM and an IC50 (GPR6; procedure of Example 24) of 100 to 1000 nM.

With `Cn1cc(-c2nc3cnccc3nc2N2CCN(CC3CCOCC3)CC2)cn1` [Compound 242, 1-[3-(1-methyl-1H-pyrazol-4-yl)pyrido[3,4-b]pyrazin-2-yl]-4-[(oxan-4-yl)methyl]piperazine] the IC50 (GPR3; [1]) was 1000 to 30000 nM and the IC50 (GPR6; [2]) was no less than 30000 nM.

`CC(=O)N1CCc2nc(N3CCC(Oc4ccc(F)cc4F)CC3)c(-c3cnn(CC(C)C)c3)nc2C1` [Compound 195, 1-{2-[4-(2,4-difluorophenoxy)piperidin-1-yl]-3-[1-(2-methylpropyl)-1H-pyrazol-4-yl]-5H,6H,7H,8H-pyrido[3,4-b]pyrazin-6-yl}ethan-1-one] gave an IC50 (GPR3; [1]) of 1000 to 30000 nM and an IC50 (GPR6; [2]) of 100 to 1000 nM.

Work on `COc1cccc(-c2nc3cnccc3nc2N2CCC(Oc3ccc(F)cc3F)CC2)n1` [Compound 102, 2-{2-[4-(2,4-difluorophenoxy)piperidin-1-yl]pyrido[3,4-b]pyrazin-3-yl}-6-methoxypyridine] yielded an IC50 (GPR3; [1]) of 1000 to 30000 nM and an IC50 (GPR6; [2]) of 100 to 1000 nM.

`CC(=O)N1CCc2nc(N3CCN(Cc4cc(F)ccc4F)CC3)c(-c3ccc(F)c(N)n3)nc2C1` [Compound 581, 1-[3-(6-amino-5-fluoro-2-pyridyl)-2-{4-[(2,5-difluorophenyl)methyl]-1-piperazinyl}-5,6,7,8-tetrahydro-1,4,6-triaza-6-naphthyl]-1-ethanone] gave an IC50 (GPR3; [3]) of 1000 to 30000 nM and an IC50 (GPR6; [4]) of less than 100 nM.

For `COC(=O)[C@H]1C[C@@H]1c1cc2nc(N3CCC(Oc4ccc(F)cc4F)CC3)c(-c3cnn(C)c3)nc2cn1` (single isomer, unassigned) [Compound 733], the IC50 (GPR3; procedure of Example 24) was 1000 to 30000 nM and the IC50 (GPR6; procedure of Example 24) was 100 to 1000 nM.

`CC(C)(O)C(C)(O)c1cc2nc(-c3cnn(C(F)F)c3)c(N3CCN(Cc4ccccc4F)CC3)nc2cn1` (single isomer, unassigned) [Compound 709] showed an IC50 (GPR3; procedure of Example 24) of 1000 to 30000 nM and an IC50 (GPR6; procedure of Example 24) of 100 to 1000 nM.

For `CC(=O)N1CCc2nc(N3CCC(Oc4cc(Cl)ccc4F)CC3)c(-c3cnn(C)c3)nc2C1` [Compound 457, 1-{2-[4-(5-chloro-2-fluorophenoxy)piperidin-1-yl]-3-(1-methyl-1H-pyrazol-4-yl)-5H,6H,7H,8H-pyrido[3,4-b]pyrazin-6-yl}ethan-1-one], the IC50 (GPR3; [1]) was 1000 to 30000 nM and the IC50 (GPR6; [2]) was 100 to 1000 nM.
